According to the supplement of paper PMC10307832:

Legend:
Test in all cases: relative viability (nuclei count vs DMSO), 5 days (fraction); higher = more cells survive
XMD8-85 + Tozasertib = compound: CN1CCN(CC1)C2=CC(=C(C=C2)NC3=NC=C4C(=N3)N(C5=CC=CC=C5C(=O)N4C)C)OC [XMD8-85] + Cc1cc(Nc2cc(N3CCN(C)CC3)nc(Sc3ccc(NC(=O)C4CC4)cc3)n2)n[nH]1 [Tozasertib] (partner 0.1 µM)
Procedure, shortened: (§1)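 Relative viability is defined as nuclei in treated wells over nuclei in vehicle wells. Duplicate plates were run and medians reported. Lung cancer cell lines in 1536-well plates were dosed by pin tool one day after seeding, with one drug or with a fixed anchor-drug dose plus five library-drug doses (not always all listed) in √10 steps, and nuclei were counted after 5 days.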

4EGI-1 + Navitoclax = compound: O=C(O)C(Cc1ccccc1[N+](=O)[O-])=NNc1nc(-c2ccc(Cl)c(Cl)c2)cs1 (mixture of isomers) [4EGI-1] + CC1(C)CCC(c2ccc(Cl)cc2)=C(CN2CCN(c3ccc(C(=O)NS(=O)(=O)c4ccc(N[C@H](CCN5CCOCC5)CSc5ccccc5)c(S(=O)(=O)C(F)(F)F)c4)cc3)CC2)C1 [Navitoclax] (partner 0.5 µM)
Procedure, shortened: as §1

4EGI-1 + Linsitinib = compound: O=C(O)C(Cc1ccccc1[N+](=O)[O-])=NNc1nc(-c2ccc(Cl)c(Cl)c2)cs1 (mixture of isomers) [4EGI-1] + C[C@]1(O)C[C@@H](c2nc(-c3ccc4ccc(-c5ccccc5)nc4c3)c3c(N)nccn32)C1 [Linsitinib] (partner 1 µM)
Procedure, shortened: as §1

4EGI-1 + Palbociclib = compound: O=C(O)C(Cc1ccccc1[N+](=O)[O-])=NNc1nc(-c2ccc(Cl)c(Cl)c2)cs1 (mixture of isomers) [4EGI-1] + CC(=O)c1c(C)c2cnc(Nc3ccc(N4CCNCC4)cn3)nc2n(C2CCCC2)c1=O [Palbociclib] (partner 0.5 µM)
Procedure, shortened: as §1

Cell Line	relative viability (XMD8-85 + Tozasertib; first compound 0.08 µM)	relative viability (XMD8-85 + Tozasertib; first compound 0.253 µM)	relative viability (XMD8-85 + Tozasertib; first compound 0.8 µM)	relative viability (XMD8-85 + Tozasertib; first compound 2.53 µM)	relative viability (XMD8-85 + Tozasertib; first compound 8 µM)	relative viability (4EGI-1 + Navitoclax; first compound 0.5 µM)	relative viability (4EGI-1 + Navitoclax; first compound 5 µM)	relative viability (4EGI-1 + Navitoclax; first compound 15.81 µM)	relative viability (4EGI-1 + Navitoclax; first compound 50 µM)	relative viability (4EGI-1 + Linsitinib; first compound 0.5 µM)	relative viability (4EGI-1 + Linsitinib; first compound 5 µM)	relative viability (4EGI-1 + Linsitinib; first compound 15.81 µM)	relative viability (4EGI-1 + Linsitinib; first compound 50 µM)	relative viability (4EGI-1 + Palbociclib; first compound 0.5 µM)	relative viability (4EGI-1 + Palbociclib; first compound 5 µM)	relative viability (4EGI-1 + Palbociclib; first compound 15.81 µM)	relative viability (4EGI-1 + Palbociclib; first compound 50 µM)	relative viability (4EGI-1 + Palbociclib; first compound 1.581 µM)	relative viability (4EGI-1 + Navitoclax; first compound 1.581 µM)	relative viability (4EGI-1 + Linsitinib; first compound 1.581 µM)
LOU-NH91	0.644	0.631	0.636	0.669	0.419	0.91	0.741	0.367	0.526	1.11	0.97	0.543	0.665	0.493	0.519	0.581	0.52			
LU99A	0.281	0.257	0.252	0.253	0.239	0.765	0.87	0.986	0.428	0.593	0.651	0.524	0.401	0.41	0.396	0.498	0.297	0.281		
LXF-289	0.194	0.216	0.171	0.142	0.166	1.01	0.983	0.915	0.784	0.984	0.921	0.935	0.673	0.603	0.582	0.553	0.518	0.602	0.933	0.96
NCI-H23	0.492	0.369	0.34	0.272	0.209	1.12	0.947	0.883	0.708	0.718	0.704	0.629	0.496	0.541	0.614	0.393	0.272			
NCI-H322M	0.427	0.496	0.462	0.451	0.436	1.21	1.16	1.17	1.41	0.885	0.947	0.798	0.891	0.461	0.516	0.46	0.453		1.18	0.929
NCI-H441	0.758	0.601	0.657	0.768	0.408	0.467	0.449	0.511	0.203	0.77	0.798	0.469	0.196	0.283	0.23	0.185	0.146	0.2	0.552	0.492
NCI-H460	0.445	0.339	0.445	0.329	0.0548	1.22	1.16	0.701	0.0476	0.777	1.07	0.182	0.0218	0.169	0.245	0.141	0.0263	0.05		
NCI-H520	0.388	0.414	0.44	0.406	0.341	1.23	1.14	1.02	0.431	1.19	1.01	0.75	0.558	0.27	0.266	0.223	0.105	0.225	1.11	0.984
NCI-H647	0.173	0.195	0.29	0.202	0.0891	1.27	1.12	0.995	0.307	1.17	1.22	1.07	0.202	0.53	0.455	0.303	0.0557	0.302		1.12
NCI-H727	0.55	0.588	0.6	0.458	0.47	0.434	0.427	0.257	0.204	0.337	0.268	0.229	0.301	0.689	0.641	0.604	0.62	0.617	0.519	0.286
NCI-H838	0.291	0.305	0.267	0.25	0.165	1.24	1.26	1.04	0.218	1.19	1.02	0.854	0.434	0.237	0.228	0.2	0.119	0.223		
NCI-H1355	0.473	0.467	0.525	0.376	0.314	1.07	0.841	0.644	0.677	0.927	0.714	0.611	0.614	0.415	0.406	0.337	0.316	0.396	0.95	0.831
NCI-H1395	0.768	0.786	0.716	0.693	0.571	1.38	1.27	1.09	0.566	1.29	1.52	0.874	0.534	0.697	0.634	0.594	0.485			
NCI-H1437	0.408	0.415	0.401	0.329	0.221	1.19	1.04	0.395	0.178	1.16	0.919	0.241	0.152	0.368	0.335	0.279	0.168	0.308	1	1
NCI-H1651	0.717	0.818	0.68	0.436	0.307	1.17	0.965	1.01	0.33	1.2	0.982	0.808	0.249	0.559	0.493	0.534	0.509	0.478	0.914	0.805
NCI-H1666	0.579	0.641	0.637	0.601	0.464	1.14	1.31	0.833	0.248	0.804	0.778	0.583	0.291	0.673	0.633	0.641	0.598	0.693	1.05	0.771

Cell Line	relative viability (XMD8-85 + Tozasertib; first compound 0.08 µM)	relative viability (XMD8-85 + Tozasertib; first compound 0.253 µM)	relative viability (XMD8-85 + Tozasertib; first compound 0.8 µM)	relative viability (XMD8-85 + Tozasertib; first compound 2.53 µM)	relative viability (XMD8-85 + Tozasertib; first compound 8 µM)	relative viability (4EGI-1 + Navitoclax; first compound 0.5 µM)	relative viability (4EGI-1 + Navitoclax; first compound 5 µM)	relative viability (4EGI-1 + Navitoclax; first compound 15.81 µM)	relative viability (4EGI-1 + Navitoclax; first compound 50 µM)	relative viability (4EGI-1 + Linsitinib; first compound 0.5 µM)	relative viability (4EGI-1 + Linsitinib; first compound 5 µM)	relative viability (4EGI-1 + Linsitinib; first compound 15.81 µM)	relative viability (4EGI-1 + Linsitinib; first compound 50 µM)	relative viability (4EGI-1 + Palbociclib; first compound 0.5 µM)	relative viability (4EGI-1 + Palbociclib; first compound 5 µM)	relative viability (4EGI-1 + Palbociclib; first compound 15.81 µM)	relative viability (4EGI-1 + Palbociclib; first compound 50 µM)	relative viability (4EGI-1 + Palbociclib; first compound 1.581 µM)	relative viability (4EGI-1 + Navitoclax; first compound 1.581 µM)	relative viability (4EGI-1 + Linsitinib; first compound 1.581 µM)
NCI-H1734	0.252	0.248	0.291	0.257	0.237	0.931	0.96	0.851	0.492	0.948	0.991	1	0.529	0.395	0.373	0.38	0.246	0.281	0.901	0.866
NCI-H1755	0.627	0.571	0.589	0.584	0.436	1.02	0.949	0.86	0.833	0.966	0.958	0.932	0.572	0.439	0.425	0.435	0.406	0.424	0.995	0.99
NCI-H1793	0.277	0.322	0.297	0.289	0.255	0.676	0.463	0.54	0.388	1	0.819	0.645	0.747	0.339	0.329	0.235	0.205	0.333	0.49	0.996
NCI-H1915	0.434	0.404	0.494	0.389	0.296	0.825	0.797	0.754	0.596	1.12	1.06	1.07	0.861	0.562	0.517	0.477	0.404	0.369	0.606	0.779
NCI-H1944	0.27	0.277	0.264	0.256	0.21	1.19	1.07	0.969	0.94	1.39	1.21	1.1	1.13	0.404	0.33	0.273	0.252			
NCI-H1975	0.701	0.721	0.763	0.485	0.145	1.2	0.984	1.08	1.18	0.902	1.01	1.01	0.698	0.725	0.527	0.665	0.41	0.565	1.05	0.941
NCI-H1993	0.583	0.628	0.56	0.557	0.546	0.952	0.77	0.7	0.483	0.754	0.737	0.699	0.706	0.727	0.584	0.52	0.366	0.624	0.895	0.757
NCI-H2009	0.727	0.696	0.703	0.416	0.308	1.19	1.22	1.11	0.17	1.33	1.29	1.07	0.885	0.251	0.224	0.196	0.149	0.243	1.21	1.23
NCI-H2023	0.266	0.355	0.432	0.335	0.163	1	0.989	0.626	0.175	0.75	0.562	0.388	0.135	0.358	0.483	0.245	0.0543			
NCI-H2085	0.745	0.913	0.791	0.644	0.502	1.19	1.2	0.931	0.743	1.03	0.887	0.771	0.639	0.518	0.453	0.474	0.339	0.462	1.01	0.911
NCI-H2087	0.265	0.223	0.238	0.245	0.177	1.08	0.999	0.647	0.218	0.983	1	0.66	0.307	0.281	0.244	0.163	0.16	0.243	0.883	0.983
NCI-H2126	0.831	0.843	0.901	0.735	0.533	0.892	0.858	0.709	0.806	0.734	0.717	0.652	0.673	0.324	0.326	0.343	0.339	0.371	0.793	0.693
NCI-H2228	0.194	0.261	0.267	0.207	0.197	1.08	0.99	0.617	0.931	0.778	0.734	0.721	0.166	1.22	0.785	0.787	0.314	0.708	1.08	0.783
NCI-H2347	0.497	0.438	0.545	0.516	0.386	0.972	0.776	0.861	0.721	1.08	0.96	0.944	0.87	0.427	0.447	0.413	0.34	0.405	0.586	0.805
NCI-H2405	0.705	0.749	0.742	0.694	0.485	1.28	1.09	1.15	0.58	1.14	1.02	1.02	0.536	0.606	0.508	0.55	0.329		0.628	0.889
NCI-H3122	0.427	0.453	0.373	0.237	0.177	1.01	1.02	1.06	1.01	1.04	0.943	1.01	0.567	0.191	0.152	0.227	0.199	0.158	0.975	0.956
